Tested on: AsDddY
Assay: HPLC of acrylate, initial rates, nonlinear Michaelis-Menten fit
Assay type: biochemical, Acinetobacter sp. ZS25
Conditions: pH 8.0, 50 °C; 0.5 nM enzyme; DMSP 1-20 mM

Km: 2600 µM
Structure (SMILES): C[S+](C)CCC(=O)[O-] [DMSP, dimethylsulfoniopropionate]

— publication PMC12309256 (Current Research in Microbial Sciences, 2025)
